Here are results for two substances from patent US6699662B1, “Inhibitors of staphylococcus SarA protein function involved in the expression of staphylococcal virulence factors and the use thereof in treating staphylococcal infections” (priority 1999, dated 2004).

Series [1] concerns SarA-DNA complex (SarA and ds A1/A2 DNA). Particulars: for effect of PNA added to the complexed SarA and radiolabeled ds A1/A2 DNA: PNA added to a mixture of SarA and ds A1/A2 DNA.
Procedure: The first tests of potential inhibitors are made using EMSA. Briefly, ^32P-labeled DNA fragments that correspond to the PNA or HP molecules are used as the targets. […] The concentration of SarA required to bind 50% of the DNA fragment is determined empirically. To determine the degree of inhibition, a mixture of SarA and ^32P-labeled DNA that gives 50% free DNA and 50% bound DNA (called 100% in this assay) is titrated with the PNA molecule. The concentration of PNA that reduces the SarA-DNA complex by 50% is the IC50 value. Using this simple, but effective testing procedure, the PNA or HP design is varied with regard to the sequence targeted and the length of PNA or HP molecules.
The samples were analyzed by standard EMSA and phosphorimaging.
Series [2] concerns A1/A2 oligonucleotide (SarA binding site of the agr locus). The series is described as follows: EMSA of PNA binding to radiolabeled A1/A2 oligonucleotide. On the set-up: species or system Staphylococcus aureus. An excerpt: The present invention also is directed to a method of identifying inhibitors of SarA function involved in the expression of staphylococcal virulence genes comprising: a) contacting a candidate inhibitor with at least one SarA binding site of the agr locus in solution to allow the binding reaction to equilibrate for a sufficient period of time; and b) assessing the binding of said candidate inhibitor to said SarA binding site of the agr locus. (See FIG. 15 for an example of the results of this method.) The method further comprises the addition of SarA to the solution of step a) simultaneously with the inhibitor and the SarA binding site, and then an assessment of the binding affinity of the candidate inhibitor relative to the binding affinity of the SarA to the SarA binding site of the agr locus. Alternatively, the addition of SarA to the solution of step a) is sequentially with the inhibitor and the SarA binding site, and then the assessment of the binding affinity of said candidate inhibitor relative to the binding affinity of said SarA to the SarA binding site of the agr locus. (See FIG. 16 for an example of the results of this method showing the results with and without the addition of SarA.)
A prototype PNA inhibitor of SarA-agr binding is constructed and tested. […] The complexes were resolved by native gel electrophoresis and detected by phosphorimaging. […]
In general terms: A gel shift assay detects complexes by their altered migration in electrophoresis.

Consider gly-TCCAATTTTTCTTAACTA-lys [18-mer], for which the “competition with SarA for binding to A1/A2 DNA” value in series [1] (10 nM dsDNA incubated with PNA (0.750 pM, 7.5, 75, 750 nM) overnight, then 10 nM SarA added, FIG. 16) is recorded as “able to outcompete SarA for binding to the DNA”. Also, in series [1], the “effect of PNA added to the complexed SarA and radiolabeled ds A1/A2 DNA” value is given as “the complex changed from the SarA-DNA complex to the PNA-DNA complex”.
As for “gly-TTTCTTAACTA-lys (N-terminal glycine and C-terminal lysine attached, backbone not given here, further chemistry not given here; listed as Staphylococcus aureus) [PNA-1]”, the “fraction of PNA active in the binding assay” value in series [2] (20 nM 32P-labeled A1/A2, FIG. 15) was “nearly all, if not all”. The “binding / affinity of PNA for the A1/A2 oligonucleotide” value in series [2] (20 nM 32P-labeled A1/A2, varying PNA concentrations, FIG. 15) is “very high”. Moreover, the “effect of PNA added to the complexed SarA and radiolabeled ds A1/A2 DNA” value in series [1] is recorded as “did not change this complex”.
